8 compounds from ChEMBL document CHEMBL1201862, “PubChem BioAssay data set” (2004) can be followed below.

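Interpolation was linear, between the two tested concentrations surrounding the appropriate level; five concentrations were tested over 48 hours in 96-well plates. GI50: concentration for 50% inhibition of growth.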 Active and inactive are the calls of the source. Cut-off read from the data, not from the text of the source: active = GI50 up to about 1.1 µM and inactive = higher.

Among the test systems are NCI-H522; PC-3; HL-60; EKVX; NCI-H460; OVCAR-4; SR; MCF7; UACC-257; SNB-75; HT-29; HCC 2998; HCT-15; ACHN; TK-10; SF-268; MDA-N; MDA-MB-231; M14; COLO 205.
Experiment in all cases: DTP human tumour cell line panel, 48 h

Consider `Cc1cn([C@@H]2O[C@H](CO)[C@@H](O)[C@@H]2O)c(=O)[nH]c1=O`, for which the GI50 in the test with NCI-H522, in the test with PC-3, in the test with HL-60, in the test on EKVX, with NCI-H460 and with OVCAR-4 was > 1000 µM (inactive) in each case. Moreover, the GI50 with SR, in the test on MCF7, with UACC-257, in the test on SNB-75, in the test on HT-29 and in the test with HCC 2998 was > 1000 µM (inactive) each time. Moreover, the GI50 with HCT-15 was more than 1000 µM; with ACHN it was > 1000 µM (inactive); in the test with TK-10, > 1000 µM (inactive); in the test with SF-268, > 1000 µM (inactive); in the test on MDA-N, > 1000 µM (inactive); in the test with MDA-MB-231 it was > 1000 µM (inactive). Further, the GI50 in the test on M14 and with COLO 205 was > 1000 µM (inactive) throughout.

As to `CC(CSc1nc2c(c(=N)n1-c1ccccc1)c(=S)n(-c1ccccc1)c(=S)n2-c1ccccc1)CN(C)C` (stereo not given), the GI50 is 1.11 µM (active) with NCI-H522; 1.87 µM (inactive) with PC-3; 0.615 µM (active) in the test with HL-60; 1.66 µM (inactive) in the test with EKVX; 1.97 µM (inactive) in the test on NCI-H460; 1.76 µM (inactive) in the test with OVCAR-4. The GI50 was 0.558 µM (active) with SR; 0.313 µM (active) in the test on MCF7; 1.79 µM (inactive) in the test with UACC-257; 1.78 µM (inactive) with SNB-75; 1.95 µM (inactive) with HT-29; 1.32 µM (inactive) in the test on HCC 2998. Besides, the GI50 was 1.55 µM with HCT-15; 1.76 µM (inactive) in the test with ACHN; 1.69 µM (inactive) with TK-10; 1.71 µM (inactive) with SF-268; 1.91 µM (inactive) in the test on MDA-N; 1.87 µM (inactive) in the test on MDA-MB-231. For the same compound, the values for the GI50 with M14 and in the test on COLO 205 were 1.86 µM (inactive) and 1.83 µM (inactive), respectively.

Regarding `COc1cccc(/C=C/C2=NN(c3cccc(S(=O)(=O)O)c3)C3(C2)SCC(=O)N3c2nc3ccccc3s2)c1` (stereo not given), the GI50 with NCI-H522 is 14.7 µM (inactive); in the test with PC-3, 37.9 µM (inactive); in the test with HL-60, 26.7 µM (inactive); in the test with EKVX it was 69.2 µM (inactive); in the test on NCI-H460, 35.7 µM (inactive); in the test on OVCAR-4, 49.4 µM (inactive). Moreover, the GI50 in the test on SR is 23.9 µM (inactive); with MCF7, 27.6 µM (inactive); with UACC-257, 85.7 µM (inactive); in the test with SNB-75 it was 74.6 µM (inactive); in the test on HT-29, 64.7 µM (inactive); in the test on HCC 2998 it was 95.1 µM (inactive). For the same compound, the GI50 in the test with HCT-15 is 53.5 µM; in the test with ACHN, 51.8 µM (inactive); in the test with TK-10, 28.8 µM (inactive); with SF-268, 33.3 µM (inactive); in the test with MDA-N, 62.7 µM (inactive); with MDA-MB-231, 36.1 µM (inactive). Further, the GI50 in the test on M14 is 80.9 µM (inactive); with COLO 205, > 100 µM (inactive).

Consider `Cc1cc(Cc2c(F)c(F)c(C(c3cc(C)no3)c3c(F)c(F)c(F)c(F)c3F)c(F)c2F)on1` (stereo not given), for which the GI50 was 23.9 µM (inactive) with NCI-H522; 69.5 µM (inactive) in the test on PC-3; 5.13 µM (inactive) in the test on HL-60; > 100 µM (inactive) in the test with EKVX; 6.41 µM (inactive) in the test on NCI-H460; > 100 µM (inactive) in the test on OVCAR-4. The GI50 was > 25.7 µM (inactive) in the test on SR; 6.76 µM (inactive) in the test with MCF7; 5.32 µM (inactive) in the test with UACC-257; 86.7 µM (inactive) in the test on SNB-75; 6.08 µM (inactive) in the test with HT-29; > 27.9 µM (inactive) in the test with HCC 2998. Moreover, the GI50 with HCT-15 is 14.2 µM; in the test on ACHN, > 100 µM (inactive); in the test on TK-10 it was > 100 µM (inactive); with SF-268, 78.3 µM (inactive); with MDA-N, 3.04 µM (inactive); in the test with MDA-MB-231, > 100 µM (inactive). Further, the GI50 was 24 µM (inactive) in the test on M14 and > 100 µM (inactive) with COLO 205.

With `Cc1ccc(OCC2OC(n3cnc4c(Cl)nc(N)nc43)CC2Oc2ccc(C)cc2)cc1` (stereo not given), the GI50 is 3.61 µM (inactive) in the test on NCI-H522; 35.4 µM (inactive) in the test with PC-3; 13.9 µM (inactive) in the test on HL-60; 9.2 µM (inactive) in the test with EKVX; 40.6 µM (inactive) in the test with NCI-H460; 21.4 µM (inactive) in the test with OVCAR-4. For the same compound, the GI50 with SR is 36 µM (inactive); in the test on MCF7 it was 2.75 µM (inactive); in the test on UACC-257, 63.7 µM (inactive); in the test on SNB-75 it was > 70.8 µM (inactive); with HT-29, 46.1 µM (inactive); in the test with HCC 2998, 24.4 µM (inactive). For the same compound, the GI50 in the test with HCT-15 is 31 µM; in the test on ACHN, 15.6 µM (inactive); in the test on TK-10, 58.6 µM (inactive); in the test on SF-268, 41.6 µM (inactive); in the test on MDA-N, 7.93 µM (inactive); in the test on MDA-MB-231, 22.4 µM (inactive). For the same compound, the GI50 with M14 was 9.27 µM (inactive); in the test on COLO 205, 68.4 µM (inactive).

For the compound `CC(C)NC(=O)OCc1c(COC(=O)NC(C)C)c(-c2ccc[n+](COC(=O)C3CCCCC3)c2)n2c1CCC2`, the GI50 was 25.1 µM (inactive) in the test with NCI-H522; 48.6 µM (inactive) with PC-3; > 100 µM (inactive) in the test with HL-60; > 100 µM (inactive) in the test with EKVX; 27.9 µM (inactive) in the test with NCI-H460; 40.6 µM (inactive) in the test on OVCAR-4. Besides, the GI50 in the test with SR is > 100 µM (inactive); in the test with MCF7, 36.6 µM (inactive); with UACC-257, > 100 µM (inactive); in the test on SNB-75, 46.8 µM (inactive); in the test on HT-29, 90.6 µM (inactive); in the test on HCC 2998 it was > 100 µM (inactive). For the same compound, the 50% growth inhibitory concentration (GI50) in the test with HCT-15 was 85.5 µM; in the test with ACHN, 27.3 µM (inactive); in the test on TK-10, 94.6 µM (inactive); in the test with SF-268 it was 42.6 µM (inactive); in the test on MDA-N, > 100 µM (inactive); in the test with MDA-MB-231, 40.5 µM (inactive). Besides, the GI50 was 56 µM (inactive) in the test with M14 and 93.1 µM (inactive) with COLO 205.

On to `O=C(CC1(O)C(=O)Nc2c(Cl)ccc(Cl)c21)c1ccco1` (stereo not given), for which the GI50 with NCI-H522 was 44.3 µM (inactive); in the test with PC-3, 28.2 µM (inactive); in the test on HL-60 it was 14.7 µM (inactive); in the test with EKVX it was 22.6 µM (inactive); in the test with NCI-H460, 20.4 µM (inactive); with OVCAR-4 it was 7.06 µM (inactive). In addition, the GI50 with SR was 4.38 µM (inactive); in the test on MCF7, 14.9 µM (inactive); with UACC-257 it was 18 µM (inactive); with SNB-75, 27 µM (inactive); with HT-29, 22.4 µM (inactive); in the test on HCC 2998, 33.5 µM (inactive). The GI50 with HCT-15 is 25.2 µM; in the test on ACHN, 20.5 µM (inactive); in the test on TK-10, > 53 µM (inactive); in the test on SF-268 it was 25.4 µM (inactive); with MDA-N, 3.63 µM (inactive); in the test on MDA-MB-231, 25.5 µM (inactive). Besides, the values for the GI50 with M14 and in the test on COLO 205 were 14.5 µM (inactive) and 17.5 µM (inactive), respectively.

As for `CC(=N\N=C\c1ccccn1)/C(C)=N/N=C/c1ccccn1`, the GI50 in the test with NCI-H522 was > 100 µM (inactive); in the test on PC-3 it was > 100 µM (inactive); with HL-60, > 100 µM (inactive); with EKVX, > 100 µM (inactive); with NCI-H460, > 100 µM (inactive); in the test on OVCAR-4, 94.4 µM (inactive). Moreover, the GI50 was 88.5 µM (inactive) with SR; 89.7 µM (inactive) in the test with MCF7; > 100 µM (inactive) in the test on UACC-257; > 100 µM (inactive) in the test with SNB-75; > 100 µM (inactive) in the test on HT-29; > 100 µM (inactive) with HCC 2998. The GI50 is 60.8 µM with HCT-15; > 100 µM (inactive) in the test with ACHN; > 100 µM (inactive) with TK-10; > 100 µM (inactive) in the test with SF-268; 51.6 µM (inactive) in the test with MDA-N; > 100 µM (inactive) in the test with MDA-MB-231. In addition, the GI50 in the test with M14 and in the test on COLO 205 was > 100 µM (inactive) in each case.

Broadly, the GI50 is the concentration that inhibits growth by half.
